Experimental findings from ChEMBL document CHEMBL1136336, “Aryl[a]pyrrolo[3,4-c]carbazoles as selective cyclin D1-CDK4 inhibitors” (Bioorg Med Chem Lett, 2003) are described below.

In test [1] the target is Cyclin-dependent kinase 4/cyclin D1 (Homo sapiens, UniProt P11802). Description: Inhibitory activity against Cyclin D1-cyclin-dependent kinase 4 by measuring the phosphorylation of RbING. It counts as protein-complex assay.
In another test the test system is HCT-116. In words: Inhibition of human HCT(colon) carcinoma cell proliferation. It counts as functional, cell-based.
For the next test, the system named is NCI-H460. Description: Inhibition of human NCI-H460 (lung) carcinoma cell proliferation. Format: functional, cell-based.
The target in test [2] is Cyclin-dependent kinase 2/cyclin E (Homo sapiens, UniProt P24941). Description: Inhibition of Cyclin E-cyclin-dependent kinase 2. It counts as protein-complex assay.
Test [3] deals with Cyclin-dependent kinase 1/cyclin B (Homo sapiens, UniProt P06493). Description: Inhibition of Cyclin B-cyclin-dependent kinase 1. It counts as protein-complex assay.
The target in test [4] is Glycogen synthase kinase-3 beta (Homo sapiens, UniProt P49841). Description: Inhibition of Glycogen synthase kinase-3 beta.
The target in test [5] is Protein kinase C gamma type (Homo sapiens, UniProt P05129). In words: Inhibition of Protein kinase C gamma.
In test [6] the target is Protein kinase C alpha type (Homo sapiens, UniProt P17252). In words: Inhibition of Protein kinase C alpha.
For test [7], the target named is Protein kinase C beta type (Homo sapiens, UniProt P05771). Description: Inhibition of Protein kinase C beta 2.
The target in test [8] is cAMP-dependent protein kinase (PKA) (Homo sapiens, UniProt P22694+P17612+P22612). Description: Inhibition of Protein kinase A. It counts as protein assay.

Cyclin-dependent kinase 4/cyclin D1, sequence (P11802 whole entry): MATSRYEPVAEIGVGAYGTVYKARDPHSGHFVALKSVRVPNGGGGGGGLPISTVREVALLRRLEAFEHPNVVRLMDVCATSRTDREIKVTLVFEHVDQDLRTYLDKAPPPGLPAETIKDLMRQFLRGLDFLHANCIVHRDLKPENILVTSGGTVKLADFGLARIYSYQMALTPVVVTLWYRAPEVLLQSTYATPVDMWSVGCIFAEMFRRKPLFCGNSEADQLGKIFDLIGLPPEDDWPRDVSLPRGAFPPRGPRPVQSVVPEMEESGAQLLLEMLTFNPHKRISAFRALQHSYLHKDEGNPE
Cyclin-dependent kinase 4/cyclin D1, sequence (P24385 whole entry, further chain): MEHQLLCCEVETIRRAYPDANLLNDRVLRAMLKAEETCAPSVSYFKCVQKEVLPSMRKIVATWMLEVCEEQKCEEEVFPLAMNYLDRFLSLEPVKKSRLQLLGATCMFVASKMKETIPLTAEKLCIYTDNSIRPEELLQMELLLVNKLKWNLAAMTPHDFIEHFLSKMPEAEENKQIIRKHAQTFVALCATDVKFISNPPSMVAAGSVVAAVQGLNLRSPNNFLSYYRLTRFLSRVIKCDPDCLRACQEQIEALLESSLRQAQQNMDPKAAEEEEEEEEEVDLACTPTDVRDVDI
Protein kinase C beta type, sequence (P05771 whole entry): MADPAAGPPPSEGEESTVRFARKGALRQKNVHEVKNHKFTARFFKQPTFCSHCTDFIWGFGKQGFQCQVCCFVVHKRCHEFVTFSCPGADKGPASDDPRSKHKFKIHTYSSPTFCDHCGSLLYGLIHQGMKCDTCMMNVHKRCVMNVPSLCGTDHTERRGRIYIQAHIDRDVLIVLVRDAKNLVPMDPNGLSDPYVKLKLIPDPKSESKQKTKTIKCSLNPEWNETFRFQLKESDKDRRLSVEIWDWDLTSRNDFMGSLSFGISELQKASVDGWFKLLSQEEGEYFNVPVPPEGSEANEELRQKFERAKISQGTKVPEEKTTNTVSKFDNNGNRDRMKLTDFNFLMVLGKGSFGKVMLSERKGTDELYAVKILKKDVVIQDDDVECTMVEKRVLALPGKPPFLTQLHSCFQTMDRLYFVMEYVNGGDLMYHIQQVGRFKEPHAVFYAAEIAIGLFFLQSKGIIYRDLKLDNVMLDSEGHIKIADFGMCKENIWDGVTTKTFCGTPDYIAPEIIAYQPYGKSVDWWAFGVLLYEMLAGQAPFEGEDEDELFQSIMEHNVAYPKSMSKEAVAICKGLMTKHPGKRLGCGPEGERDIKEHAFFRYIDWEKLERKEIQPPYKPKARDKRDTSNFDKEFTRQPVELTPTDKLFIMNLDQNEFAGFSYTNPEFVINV
Glycogen synthase kinase-3 beta, sequence (P49841 whole entry): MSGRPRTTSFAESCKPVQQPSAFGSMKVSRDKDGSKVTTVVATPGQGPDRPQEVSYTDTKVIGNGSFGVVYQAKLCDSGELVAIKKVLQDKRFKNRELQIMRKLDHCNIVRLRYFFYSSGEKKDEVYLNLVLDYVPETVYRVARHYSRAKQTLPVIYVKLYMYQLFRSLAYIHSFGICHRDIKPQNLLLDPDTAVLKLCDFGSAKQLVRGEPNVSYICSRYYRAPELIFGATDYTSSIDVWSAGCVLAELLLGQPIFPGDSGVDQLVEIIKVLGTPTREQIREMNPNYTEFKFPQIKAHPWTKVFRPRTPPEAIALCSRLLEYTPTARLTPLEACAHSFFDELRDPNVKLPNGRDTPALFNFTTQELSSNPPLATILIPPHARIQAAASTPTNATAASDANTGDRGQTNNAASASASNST

With `O=C1NC(=O)c2c1c1c3c(ccc1c1[nH]c4ccccc4c21)CCCC3`, the midpoint of inhibition in test [1], the IC50, lay at 410 nM.
For the compound `O=C1NC(=O)c2c1c1ccncc1c1[nH]c3ccccc3c21`, inhibition in test [1] was half-maximal at 1810 nM (IC50).
On to `O=C1NC(=O)c2c1c1c3ccccc3[nH]c1c1sc3ccccc3c21`, for which the IC50 in test [1] amounted to 220 nM; with HCT-116 it was 3020 nM; with NCI-H460, 2840 nM.
The compound `O=C1NC(O)c2c1c1c3ccccc3[nH]c1c1[nH]c3ccccc3c21` (centres undefined) gave an IC50 in test [1] of 3830 nM.
Regarding `O=C1NC(=O)c2c1c1sccc1c1[nH]c3ccccc3c21`, the values for the IC50 (in test [1]; in the test with HCT-116; with NCI-H460) were 150 nM, over 10000 nM and over 10000 nM, respectively.
Turning to `O=C1NC(=O)c2c1c1c3ccccc3ccc1c1[nH]c3ccccc3c21`, the IC50 is 275 nM in [2]; 590 nM in test [3]; 45 nM in test [1]; 4380 nM in test [4]; 5050 nM with HCT-116; 2110 nM with NCI-H460. Also, the IC50 in [5] is 56500 nM; in [6], 52800 nM; in test [7], 9000 nM; in [8] it was over 20000 nM.
`O=C1NC(=O)c2c1c1c3ccc[nH]c-3nc1c1[nH]c3ccccc3c21`: the IC50 stood at 250 nM in test [1], 1050 nM in the test with HCT-116 and 1160 nM with NCI-H460.
The matching figures for `O=C1NC(=O)c2c1c1ccc3ccccc3c1c1[nH]c3ccccc3c21`: 430 nM, over 10000 nM and over 10000 nM.
With `O=C1NC(=O)c2c1c1ncccc1c1[nH]c3ccccc3c21`, the IC50 in test [1] was 180 nM; in the test on HCT-116, over 10000 nM; in the test with NCI-H460 it was over 10000 nM.
The compound `O=C1NC(=O)c2c1c1cc3ccccc3cc1c1[nH]c3ccccc3c21` displayed an IC50 in test [1] of over 10000 nM.
For the compound `O=C1NC(=O)c2c1c1ccccc1c1[nH]c3ccccc3c21`, the IC50 came to 260 nM in test [1], 5830 nM with HCT-116 and 3420 nM with NCI-H460.
On to `O=C1NC(=O)c2c1c1[nH]cnc1c1[nH]c3ccccc3c21` [GRANULATIMIDE], for which inhibition in test [1] was half-maximal at 740 nM (IC50).
Regarding `O=C1NC(=O)c2c1c1c3ccccc3[nH]c1c1[nH]c3ccccc3c21` [STAUROSPORINE AGLYCON], the IC50 in test [8] is over 2000 nM.
Regarding `O=C1NCc2c1c1c3ccccc3[nH]c1c1[nH]c3ccccc3c21` [STAUROSPORINONE], the IC50 was over 1000 nM in test [2]; 830 nM in test [1]; 1720 nM in the test on HCT-116; 3200 nM with NCI-H460; over 2000 nM in test [8].

The IC50 is the concentration that inhibits the measured activity by half. A higher IC50 goes with weaker potency.
